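Cells were grown in 96-well plates and exposed to each compound for 48 hours at five concentrations; endpoints were interpolated linearly between bracketing concentrations, or set to the highest concentration if not reached. At the GI50, growth is halved.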 Calls of active or inactive are those of the source. Rule as the data show it: active = GI50 up to about 1.1 µM and inactive = higher.
Legend:
Assay in all cases: growth of human tumour cells (NCI), 48 h
[1] = system: MDA-MB-231
[2] = system: UACC-257
[3] = system: Hs-578T
[4] = system: PC-3
[5] = system: MDA-N
[6] = system: HCT-116
[7] = system: DU-145
[8] = system: COLO 205
[9] = system: 786-0
[10] = system: NCI-H23
[11] = system: HOP-62
[12] = system: MCF7
[13] = system: KM12
[14] = system: MOLT-4
[15] = system: K562
[16] = system: HL-60
[17] = system: OVCAR-3
[18] = system: IGROV-1
[19] = system: LOX IMVI
[20] = system: SK-MEL-2
[21] = system: NCI-H522
[22] = system: U-251
[23] = system: OVCAR-5
[24] = system: MDA-MB-435
[25] = system: HT-29
[26] = system: OVCAR-4
[27] = system: RXF 393
[28] = system: SNB-75
[29] = system: SK-MEL-5
[30] = system: HCT-15
[31] = system: HCC 2998
[32] = system: A549
[33] = system: SW-620
[34] = system: UO-31
[35] = system: SN12C
[36] = system: NCI-H226
[37] = system: NCI/ADR-RES
[38] = system: CAKI-1
[39] = system: SF-539
[40] = system: RPMI-8226
[41] = system: BT-549
[42] = system: CCRF-CEM
[43] = system: A498
[44] = system: OVCAR-8
[45] = system: T47D
[46] = system: TK-10
[47] = system: SR
[48] = system: HOP-92
[49] = system: Malme-3M
[50] = system: SF-268
[51] = system: NCI-H460
[52] = system: UACC-62
[53] = system: SF-295
[54] = system: SK-MEL-28
[55] = system: SNB-19
[56] = system: SK-OV-3
[57] = system: ACHN
[58] = system: M14
[59] = system: EKVX

## Nc1ncc(C=O)c(NCC2(CO)CCC2)n1
[1]
  GI50: 45.8 µM (inactive)
[2]
  GI50: > 100 µM (inactive)
[3]
  GI50: 41.1 µM (inactive)
[4]
  GI50: 82.4 µM (inactive)
[5]
  GI50: > 100 µM (inactive)
[6]
  GI50: 36.6 µM (inactive)
[7]
  GI50: 33 µM (inactive)
[8]
  GI50: 28.4 µM (inactive)
[9]
  GI50: > 100 µM (inactive)
[10]
  GI50: 33.5 µM (inactive)
[11]
  GI50: 31.7 µM (inactive)
[12]
  GI50: 23.9 µM (inactive)
[13]
  GI50: 83.9 µM (inactive)
[14]
  GI50: 30.5 µM (inactive)
[15]
  GI50: 36.4 µM (inactive)
[16]
  GI50: 13 µM (inactive)
[17]
  GI50: 50.6 µM (inactive)
[18]
  GI50: 41.5 µM (inactive)
[19]
  GI50: 32.1 µM (inactive)
[20]
  GI50: 19.3 µM (inactive)
[21]
  GI50: 35.6 µM (inactive)
[22]
  GI50: 35.6 µM (inactive)
[23]
  GI50: 44.8 µM (inactive)
[24]
  GI50: 44.9 µM (inactive)
[25]
  GI50: 64 µM (inactive)
[26]
  GI50: 48.9 µM (inactive)
[27]
  GI50: 28.4 µM (inactive)
[28]
  GI50: 66.1 µM (inactive)
[29]
  GI50: 19.9 µM (inactive)
[30]
  GI50: 71.1 µM
[31]
  GI50: > 100 µM (inactive)
[32]
  GI50: 37.5 µM (inactive)
[33]
  GI50: 89.9 µM (inactive)
[34]
  GI50: 27.5 µM (inactive)
[35]
  GI50: > 100 µM (inactive)
[36]
  GI50: 27.7 µM (inactive)
[37]
  GI50: 65.9 µM (inactive)
[38]
  GI50: 2.25 µM (inactive)
[39]
  GI50: 39.7 µM (inactive)
[40]
  GI50: 8.04 µM (inactive)
[41]
  GI50: > 10 µM (inactive)
[42]
  GI50: 38.4 µM (inactive)
[43]
  GI50: 26.3 µM (inactive)
[44]
  GI50: 51.1 µM (inactive)
[45]
  GI50: 14.8 µM (inactive)
[46]
  GI50: 15.4 µM (inactive)
[47]
  GI50: 18 µM (inactive)
[48]
  GI50: 14.5 µM (inactive)
[49]
  GI50: 77.4 µM (inactive)
[50]
  GI50: 87.9 µM (inactive)
[51]
  GI50: 50 µM (inactive)
[52]
  GI50: 12.3 µM (inactive)
[53]
  GI50: 36.8 µM (inactive)

## O=C(NCCN(CCNC(=O)c1cccc(=O)n1O)CCNC(=O)c1cccc(=O)n1O)c1cccc(=O)n1O
[1]
  GI50: > 100 µM (inactive)
[54]
  GI50: > 100 µM (inactive)
[2]
  GI50: > 100 µM (inactive)
[55]
  GI50: > 100 µM (inactive)
[3]
  GI50: > 100 µM (inactive)
[4]
  GI50: > 100 µM (inactive)
[5]
  GI50: > 100 µM (inactive)
[7]
  GI50: > 100 µM (inactive)
[8]
  GI50: > 100 µM (inactive)
[56]
  GI50: > 100 µM (inactive)
[10]
  GI50: > 100 µM (inactive)
[11]
  GI50: > 100 µM (inactive)
[12]
  GI50: > 100 µM (inactive)
[13]
  GI50: > 100 µM (inactive)
[15]
  GI50: > 100 µM (inactive)
[16]
  GI50: > 100 µM (inactive)
[17]
  GI50: > 100 µM (inactive)
[18]
  GI50: > 100 µM (inactive)
[20]
  GI50: > 100 µM (inactive)
[21]
  GI50: > 100 µM (inactive)
[22]
  GI50: > 100 µM (inactive)
[23]
  GI50: > 100 µM (inactive)
[57]
  GI50: > 100 µM (inactive)
[24]
  GI50: > 100 µM (inactive)
[25]
  GI50: > 100 µM (inactive)
[26]
  GI50: > 100 µM (inactive)
[27]
  GI50: > 100 µM (inactive)
[28]
  GI50: > 100 µM (inactive)
[29]
  GI50: > 100 µM (inactive)
[30]
  GI50: > 100 µM
[31]
  GI50: > 100 µM (inactive)
[32]
  GI50: > 100 µM (inactive)
[33]
  GI50: > 100 µM (inactive)
[34]
  GI50: > 100 µM (inactive)
[35]
  GI50: > 100 µM (inactive)
[36]
  GI50: > 100 µM (inactive)
[37]
  GI50: > 100 µM (inactive)
[38]
  GI50: > 100 µM (inactive)
[58]
  GI50: > 100 µM (inactive)
[39]
  GI50: > 100 µM (inactive)
[40]
  GI50: > 100 µM (inactive)
[41]
  GI50: > 100 µM (inactive)
[42]
  GI50: > 100 µM (inactive)
[43]
  GI50: > 100 µM (inactive)
[44]
  GI50: > 100 µM (inactive)
[45]
  GI50: > 100 µM (inactive)
[46]
  GI50: > 100 µM (inactive)
[47]
  GI50: > 100 µM (inactive)
[48]
  GI50: > 100 µM (inactive)
[49]
  GI50: > 100 µM (inactive)
[50]
  GI50: > 100 µM (inactive)
[51]
  GI50: > 100 µM (inactive)
[52]
  GI50: > 100 µM (inactive)
[53]
  GI50: > 100 µM (inactive)

## CSc1c(C#N)c(O)n(-c2ccc(C)cc2)c(=O)c1C#N
[1]
  GI50: > 100 µM (inactive)
[54]
  GI50: > 100 µM (inactive)
[2]
  GI50: > 100 µM (inactive)
[55]
  GI50: > 100 µM (inactive)
[3]
  GI50: > 100 µM (inactive)
[4]
  GI50: > 100 µM (inactive)
[5]
  GI50: > 100 µM (inactive)
[6]
  GI50: > 100 µM (inactive)
[7]
  GI50: > 100 µM (inactive)
[8]
  GI50: > 100 µM (inactive)
[56]
  GI50: > 100 µM (inactive)
[9]
  GI50: > 100 µM (inactive)
[10]
  GI50: > 100 µM (inactive)
[12]
  GI50: > 100 µM (inactive)
[13]
  GI50: > 100 µM (inactive)
[14]
  GI50: > 100 µM (inactive)
[15]
  GI50: > 100 µM (inactive)
[16]
  GI50: > 100 µM (inactive)
[17]
  GI50: > 100 µM (inactive)
[18]
  GI50: > 100 µM (inactive)
[19]
  GI50: > 100 µM (inactive)
[20]
  GI50: > 100 µM (inactive)
[21]
  GI50: > 100 µM (inactive)
[22]
  GI50: > 100 µM (inactive)
[23]
  GI50: > 100 µM (inactive)
[24]
  GI50: > 100 µM (inactive)
[25]
  GI50: > 100 µM (inactive)
[26]
  GI50: > 100 µM (inactive)
[27]
  GI50: > 100 µM (inactive)
[28]
  GI50: > 100 µM (inactive)
[29]
  GI50: > 100 µM (inactive)
[30]
  GI50: > 100 µM
[31]
  GI50: > 100 µM (inactive)
[32]
  GI50: > 100 µM (inactive)
[33]
  GI50: > 100 µM (inactive)
[34]
  GI50: > 100 µM (inactive)
[35]
  GI50: > 100 µM (inactive)
[36]
  GI50: > 100 µM (inactive)
[37]
  GI50: > 100 µM (inactive)
[38]
  GI50: > 100 µM (inactive)
[58]
  GI50: > 100 µM (inactive)
[39]
  GI50: > 100 µM (inactive)
[40]
  GI50: > 100 µM (inactive)
[41]
  GI50: > 100 µM (inactive)
[43]
  GI50: > 100 µM (inactive)
[44]
  GI50: > 100 µM (inactive)
[45]
  GI50: > 100 µM (inactive)
[46]
  GI50: > 100 µM (inactive)
[47]
  GI50: > 100 µM (inactive)
[48]
  GI50: > 100 µM (inactive)
[49]
  GI50: > 100 µM (inactive)
[50]
  GI50: > 100 µM (inactive)
[51]
  GI50: > 100 µM (inactive)
[59]
  GI50: > 100 µM (inactive)
[52]
  GI50: > 100 µM (inactive)

## CCc1nc(N)nc(N)c1-c1ccc(Cl)c(/N=N/N(C)C)c1
[1]
  GI50: 48.8 µM (inactive)
[54]
  GI50: 29.1 µM (inactive)
[2]
  GI50: 29.4 µM (inactive)
[55]
  GI50: 44.4 µM (inactive)
[3]
  GI50: 30.3 µM (inactive)
[4]
  GI50: 24.5 µM (inactive)
[5]
  GI50: 36 µM (inactive)
[6]
  GI50: 15.4 µM (inactive)
[7]
  GI50: 55.7 µM (inactive)
[8]
  GI50: 24.1 µM (inactive)
[56]
  GI50: > 89.3 µM (inactive)
[9]
  GI50: 35 µM (inactive)
[10]
  GI50: 27.4 µM (inactive)
[11]
  GI50: 23.2 µM (inactive)
[12]
  GI50: 37.7 µM (inactive)
[13]
  GI50: 28.4 µM (inactive)
[14]
  GI50: 26.5 µM (inactive)
[15]
  GI50: 8.04 µM (inactive)
[16]
  GI50: 20.8 µM (inactive)
[17]
  GI50: 37.6 µM (inactive)
[18]
  GI50: 24.1 µM (inactive)
[19]
  GI50: 24.5 µM (inactive)
[20]
  GI50: 32.2 µM (inactive)
[21]
  GI50: 27.7 µM (inactive)
[22]
  GI50: 34.5 µM (inactive)
[23]
  GI50: > 82 µM (inactive)
[57]
  GI50: 28.6 µM (inactive)
[24]
  GI50: 27.9 µM (inactive)
[25]
  GI50: 18.7 µM (inactive)
[26]
  GI50: 25.1 µM (inactive)
[27]
  GI50: 41.4 µM (inactive)
[28]
  GI50: 61 µM (inactive)
[29]
  GI50: 20.7 µM (inactive)
[30]
  GI50: 17.1 µM
[31]
  GI50: 23.7 µM (inactive)
[32]
  GI50: 17.2 µM (inactive)
[33]
  GI50: 27.4 µM (inactive)
[34]
  GI50: 18.4 µM (inactive)
[35]
  GI50: 67.8 µM (inactive)
[36]
  GI50: 59.6 µM (inactive)
[37]
  GI50: 23.8 µM (inactive)
[38]
  GI50: 36.1 µM (inactive)
[58]
  GI50: 22.5 µM (inactive)
[39]
  GI50: 23.1 µM (inactive)
[40]
  GI50: 19 µM (inactive)
[41]
  GI50: 30.1 µM (inactive)
[42]
  GI50: 27 µM (inactive)
[43]
  GI50: 52 µM (inactive)
[44]
  GI50: 40.5 µM (inactive)
[45]
  GI50: 39.7 µM (inactive)
[46]
  GI50: > 100 µM (inactive)
[47]
  GI50: 19.1 µM (inactive)
[48]
  GI50: 47.8 µM (inactive)
[50]
  GI50: 49.2 µM (inactive)
[51]
  GI50: 6.59 µM (inactive)
[59]
  GI50: 32.7 µM (inactive)
[52]
  GI50: 24.9 µM (inactive)
[53]
  GI50: 26.5 µM (inactive)

Reference: ChEMBL document CHEMBL1201862, “PubChem BioAssay data set” (2004)
